Laboratory results from article PMC10574185, “Encapsulation and Biological Activity of Hesperetin Derivatives with HP-β-CD” (Molecules, 2023).
≈ marks a conversion by molar mass, not a printed value. Where “and” joins values, the source holds several entries; their conditions need not be identical. Equal values may be shown once. Read-outs that look alike come from different tables or passages of the source.

Tests used:
[1] = DPPH assay (antioxidant activity); details: concentration 0.1 mg/mL, mean ± SD
Procedure: (§1) To evaluate the antioxidant ability of the tested systems, antioxidant analysis was performed. Antioxidants can scavenge hydroxyl radicals in two ways: by reacting directly with hydroxyl radicals (DPPH^•, ABTS^•+) or indirectly inhibiting the formation of hydroxyl radicals by chelating metal ions involved in the production of hydroxyl radicals. The antioxidant activity of the systems studied was investigated by using DPPH^• scavenging, ABTS^•+ scavenging ability, and Fe^2+-chelating ability. In this study, the antioxidant activity of pure hesperetin and its Schiff bases (HHSB, HIN, and HTSC) and HP-β-CD complexes were compared, and the positive control was Trolox.
The detailed methodology of DPPH assay was described in the previous paper by Sykuła et al..

[2] = tested on: HaCaT cells; assay: MTT cytotoxicity assay on HaCaT keratinocytes; assay type: cell-based, human
Procedure: HaCaT keratinocyte cells were exposed to chemical compounds at nine different concentrations (from 3.9 to 995.6 µg/mL) in four replicates of each concentration for 24 and 48 h.
All compounds were dissolved in sterile DMSO (Merck Life Science, Warsaw, Poland) and were sterile-filtered with 0.22 µm pore size sterile disposable syringe filters.
HaCaT cell line (the normal immortalised human keratinocytes) used in the study derived from the 35th passage (the original material created by Prof. Dr. Petra Boukamp and Dr. Norbert Fusenig) was purchased from Cell Line Service GmbH (Eppelheim, Germany). The cells were cultured and propagated as described previously.
The cytotoxicity was assessed with MTT assay according to methodology applied previously.
The following final concentrations (in four replicates per experiment) of the test compounds were tested (µg/mL): 3.9; 7.8; 15.6; 31.1; 62.2; 124.5; 248.9; 497.8, and 995.6. […] Three independent experiments were conducted. The vehicle was cells in the culture medium. The assay was conducted for 24 h and 48 h.

[3] = Phase solubility studies with HP-β-CD; assay type: physicochemical; details: for solubility at 60 min: thermodynamic from solid
Procedure: The purpose of this part of the study was to determine the solubility of compounds of hesperetin and its Schiff bases (HHSB, HIN, and HTSC) in aqueous solution at different pHs and temperatures, and the effect of their inclusion in modified HP-β-CD on the aqueous solubility of these compounds at different pH values.
The effect of the presence of HP-β-CD at different temperatures (25, 37, and 60 °C) was determined by developing phase solubility diagrams.
In accordance with the methodology described in Section 3.4, excess amounts of each tested substance were added to aqueous solution with increasing concentration of HP-β-CD up to 16 mM, respectively, in 2 mL of 100 mM sodium acetate buffer (pH 3.6), 100 mM sodium phosphate buffer (pH 6.5) or 100 mM sodium borate buffer (pH 8.5).
Phase solubility studies were conducted according to [64] with some modifications. Excess amounts of each tested substance were added to aqueous solution with increasing concentration of HP-β-CD up to 16 mM, in 2 mL of 100 mM sodium acetate buffer (pH 3.6), 100 mM sodium phosphate buffer (pH 6.5), or 100 mM sodium borate buffer (pH 8.5), respectively. The samples were maintained in an ultrasonic bath at various temperatures (25, 37, and 60 °C) for 60 min to reach equilibrium. The aqueous solutions were then filtered through 0.45 µm acetate cellulose (CA) membrane filter and diluted. The tested compound concentration on each clear filtrate was spectrophotometrically determined by measuring at their wavelength maximum.
The complexation constant (Kc) between studied molecules and HP-β-CD was determined by using Equation (1):(1) Kc=slope/S0 (1−slope) where S0 means the water solubility of the studied substance, and “slope” means the slope of the phase solubility diagram.
Complexation efficiency was calculated from the slope of the phase solubility diagram using Equation (2):(2) CE=S0×Kc=slope/1−slope
The CE was also applied to evaluate the molar ratio in solution of tested systems using Equation (3):(3) Compound:HP−β−CD=1:(1+1/CE)

[4] = ABTS^•+ radical cation decolorization assay; details: concentration 0.1 mg/mL, mean ± SD
Procedure: as §1
Antioxidant activity using ABTS^•+ cation radical scavenging was determined according to a modified method. ABTS solution (2.5 mM) was mixed with 1.0 mM potassium persulfate solution and left at room temperature in the dark for 12-24 h. After this time, the absorbance of the finished ABTS^•+ solution was corrected with ethanol to 0.70 ± 0.02 at 745 nm. A total of 100 µL of the sample was reacted for 5 min with 2 mL of ABTS^•+ solution (A745 nm = 0.70 ± 0.02). The absorbance value of the reaction mixture was measured at 745 nm. […] Scavenging activity (%) = [1 − (Asample − Ablank)/Acontrol] × 100%(4) where Acontrol is the absorbance value of the control (ABTS^•+ solution with water), Ablank is the absorbance value of samples mixed with anhydrous ethanol, and Asample is the absorbance value of the added test sample to ABTS^•+ solution at 745 nm, respectively.

CE complexation efficiency ([3]; 25 °C, pH 3.6, with HP-β-CD): 1.4% | Kc complexation constant ([3]; 25 °C, pH 3.6, with HP-β-CD): 341 ± 79 M⁻¹ | CE complexation efficiency ([3]; 25 °C, pH 6.5, with HP-β-CD): 0.7% | Kc complexation constant ([3]; 25 °C, pH 6.5, with HP-β-CD): 150 ± 21 M⁻¹ | CE complexation efficiency ([3]; 25 °C, pH 8.5, with HP-β-CD): 0.7% | Kc complexation constant ([3]; 25 °C, pH 8.5, with HP-β-CD): 150 ± 19 M⁻¹ | CE complexation efficiency ([3]; 37 °C, pH 3.6, with HP-β-CD): 1.1% | Kc complexation constant ([3]; 37 °C, pH 3.6, with HP-β-CD): 226 ± 92 M⁻¹ | CE complexation efficiency ([3]; 37 °C, pH 6.5, with HP-β-CD): 2.5% | Kc complexation constant ([3]; 37 °C, pH 6.5, with HP-β-CD): 618 ± 36 M⁻¹ | CE complexation efficiency ([3]; 37 °C, pH 8.5, with HP-β-CD): 0.15% | Kc complexation constant ([3]; 37 °C, pH 8.5, with HP-β-CD): 100 ± 34 M⁻¹ | CE complexation efficiency ([3]; 60 °C, pH 3.6, with HP-β-CD): 0.9% | Kc complexation constant ([3]; 60 °C, pH 3.6, with HP-β-CD): 250 ± 20 M⁻¹ | CE complexation efficiency ([3]; 60 °C, pH 6.5, with HP-β-CD): 1.8% | Kc complexation constant ([3]; 60 °C, pH 6.5, with HP-β-CD): 155 ± 4 M⁻¹ | increase of solubility with HP-β-CD ([3]; 60 °C, pH 8.5): five-fold | CE complexation efficiency ([3]; 60 °C, pH 8.5, with HP-β-CD): 7% | Kc complexation constant ([3]; 60 °C, pH 8.5, with HP-β-CD): 728 ± 82 M⁻¹ | solubility at 60 min ([3]; aqueous buffer, 25 °C, pH 3.6 sodium acetate buffer, without cyclodextrin, read-out: solubility without HP-β-CD (value in brackets) (converted)): 18 µM (≈ 7.57 µg/mL) | solubility at 60 min ([3]; aqueous buffer, 25 °C, pH 6.5 sodium phosphate buffer, without cyclodextrin, read-out: solubility without HP-β-CD (value in brackets) (converted)): 25 µM (≈ 10.5 µg/mL) | solubility at 60 min ([3]; aqueous buffer, 25 °C, pH 8.5 sodium borate buffer, without cyclodextrin, read-out: solubility without HP-β-CD (value in brackets) (converted)): 25 µM (≈ 10.5 µg/mL) | solubility at 60 min ([3]; aqueous buffer, 37 °C, pH 3.6 sodium acetate buffer, without cyclodextrin, read-out: solubility without HP-β-CD (value in brackets) (converted)): 20 µM (≈ 8.41 µg/mL) | solubility at 60 min ([3]; aqueous buffer, 37 °C, pH 6.5 sodium phosphate buffer, without cyclodextrin, read-out: solubility without HP-β-CD (value in brackets) (converted)): 5 µM (≈ 2.1 µg/mL) | solubility at 60 min ([3]; aqueous buffer, 37 °C, pH 8.5 sodium borate buffer, without cyclodextrin, read-out: solubility without HP-β-CD (value in brackets) (converted)): 5 µM (≈ 2.1 µg/mL) | solubility at 60 min ([3]; aqueous buffer, 60 °C, pH 3.6 sodium acetate buffer, without cyclodextrin, read-out: solubility without HP-β-CD (value in brackets) (converted)): 12 µM (≈ 5.05 µg/mL) | solubility at 60 min ([3]; aqueous buffer, 60 °C, pH 6.5 sodium phosphate buffer, without cyclodextrin, read-out: solubility without HP-β-CD (value in brackets) (converted)): 27 µM (≈ 11.4 µg/mL) | solubility at 60 min ([3]; aqueous buffer, 60 °C, pH 8.5 sodium borate buffer, without cyclodextrin, read-out: solubility without HP-β-CD (value in brackets) (converted)): 18 µM (≈ 7.57 µg/mL) | solubility at 60 min ([3]; 25 °C, pH 3.6 sodium acetate buffer, with HP-β-CD, read-out: S0 (solubility with HP-β-CD)): 41 ± 21 µM (≈ 17.2 µg/mL) | solubility at 60 min ([3]; 25 °C, pH 6.5 sodium phosphate buffer, with HP-β-CD, read-out: S0 (solubility with HP-β-CD)): 45 ± 5 µM (≈ 18.9 µg/mL) | solubility at 60 min ([3]; 25 °C, pH 8.5 sodium borate buffer, with HP-β-CD, read-out: S0 (solubility with HP-β-CD)): 45 ± 5 µM (≈ 18.9 µg/mL) | solubility at 60 min ([3]; 37 °C, pH 3.6 sodium acetate buffer, with HP-β-CD, read-out: S0 (solubility with HP-β-CD)): 50 ± 10 µM (≈ 21 µg/mL) | solubility at 60 min ([3]; 37 °C, pH 6.5 sodium phosphate buffer, with HP-β-CD, read-out: S0 (solubility with HP-β-CD)): 41 ± 23 µM (≈ 17.2 µg/mL) | solubility at 60 min ([3]; 37 °C, pH 8.5 sodium borate buffer, with HP-β-CD, read-out: S0 (solubility with HP-β-CD)): 15 ± 6.1 µM (≈ 6.31 µg/mL) | solubility at 60 min ([3]; 60 °C, pH 3.6 sodium acetate buffer, with HP-β-CD, read-out: S0 (solubility with HP-β-CD)): 36 ± 14 µM (≈ 15.1 µg/mL) | solubility at 60 min ([3]; 60 °C, pH 6.5 sodium phosphate buffer, with HP-β-CD, read-out: S0 (solubility with HP-β-CD)): 115 ± 53 µM (≈ 48.3 µg/mL) | solubility at 60 min ([3]; 60 °C, pH 8.5 sodium borate buffer, with HP-β-CD, read-out: S0 (solubility with HP-β-CD)): 96 ± 42 µM (≈ 40.4 µg/mL)
SMILES: COc1ccc(C2C/C(=N\NC(=O)c3ccccc3)c3c(O)cc(O)cc3O2)cc1O (racemic) [HHSB]
DPPH antioxidant activity [1]: 44.29 ± 4.5% | cytotoxicity at the lowest concentration tested ([2]; 48 h, 3.9 µg/mL): 54.8% ± 5.4 | cytotoxicity at the highest concentration tested ([2]; 48 h, 995.6 µg/mL): 79.1% ± 6.6 | IC50 ([2]; Homo sapiens, MTT, 24 h exposure, read-out: IC50 After 24 h): 418 µg/mL (≈ 993 µM) | IC70 after 48 h ([2]; MTT, 48 h exposure, IC50 impossible to count): 163.5 µg/mL and 163.5 ^b µg/mL | ABTS^•+ antioxidant activity [4]: 98.11 ± 5.0%
